Experimental data published in patent US11525008B2, “Methods and pharmaceutical compositions for the treatment of lung cancer” (INSERM (INSTITUT NATIONAL DE LA SANTÉ ET DE LA RECHERCHE …, priority 2016, dated 2022).

What was measured:
Assay type in all cases: cell-based
A549 spheroids = assay: collagen I gel invasion by spheroids, timelapse videomicroscopy, after FHIT silencing; conditions: irbinitinib 15 nM, FHIT siRNA, up to 72h, vs FHIT siRNA+DMSO p=0.0001, FIG. 4
Description: FIG. 4: Collagen I gel invasion by A549 spheroids induced by FHIT silencing is HER2-dependent. […] A. Representative phase-contrast images of spheroids at T0 and T=72h. B. Time course analysis of mean diameter of spheroids.** p<0.01; *** p<0.001.

HBE-4-E6/E7 cell line = assay: matrigel modified Boyden chamber cell invasion assay after FHIT silencing; conditions: irbinitinib 10 nM; HBE-4-E6/E7 cells transfected with FHIT siRNA; FIG. 3A
Source text: (§1) FIG. 3: Cell invasion induced by FHIT silencing is HER2-dependent.

A549 cell line = assay: as above; conditions: irbinitinib 10 nM; A549 cells transfected with FHIT siRNA; FIG. 3B
Source text: as §1

## Cc1cc(Nc2ncnc3ccc(NC4=NC(C)(C)CO4)cc23)ccc1Oc1ccn2ncnc2c1 [irbinitinib, N4-(4-([1,2,4]Triazolo[1,5-a]pyridin-7-yloxy)-3-methylphenyl)-N6-(4,4-dimethyl-4,5-dihydrooxazol-2-yl)quinazoline-4,6-diamine]
A549 spheroids
  spheroid invasion (tumor cell dispersion into collagen I matrix, mean spheroid diameter) induced by FHIT silencing: reduces spheroid invasion
HBE-4-E6/E7 cell line
  cell invasion induced by FHIT silencing: reduces cell invasion
A549 cell line
  cell invasion induced by FHIT silencing: reduces cell invasion
